Legend:
[1] = system: wheat variety Canon immature embryos / embryogenic callus; experiment: Agrobacterium-mediated transformation with dao1 constructs and selection of transgenic plants; assay type: cell-based, Triticum aestivum; settings: 5 mM selection
Description: (§1) Explants were washed with PAW-Inf. medium and immersed in the above-described bacterial suspension for 2 h at 26° C. At the end of infection the explants were placed with scutellum side up on PAW-1 medium. The residual bacterial suspension is removed by pipeting out and air-drying of the infected embryos by opening plates for 15 min on the sterile banch. Plates were sealed with Parafilm and placed in thermostat at 26° C. in the dark for 5-6 days co-cultivation.
(§2) After co-cultivation period the explants were washed with sterile water and 500 mg/L Cefotaxime and filter paper dried before being transferred to PAW-2 callus induction-recovery medium containing 160 mg/l Timentin for 14 days (7 days dark/7 days semi light; 13.2 μmol m^−2s^−1). Explants with embryogenic callus were subculture to PAW-2 callus-proliferation medium containing 160 mg/l Timentin and corresponding selection 5 mM D-serine or 5 mM D-alanine or 3 mg/l bialaphos. In some experiments the selection on D-amino acids was starting on PAW-2 callus induction medium 0, 7, 14 and 21 days after co cultivation. Embryogenic callus was subculture twice on fresh selective medium for callus maintaining and regeneration on PAW-4 medium with corresponding selection. Cultures were maintained at 23° C. on light 60.2 μmol m^−2s^−1. Regenerated shoots were subculture to PAW-5 hormone free medium with corresponding selection (5 mM D-serine or 5 mM D-alanine or 3 mg/l bialaphos) for further growth and rooting. All media used in the transformation experiments were filter sterilized and are listed in above. After analyses transgenic plants were transferred to soil and placed for further growth in greenhouse. 1.4 Molecular and expression studies of the transgenic plants
Freshly isolated immature embryos from Canon were inoculated with Agrobacterium. In all experiments Agrobacterium tumefactions super binary vector system based on LBA4404 (pSB1) was used. The constructs pRLM205 containing the original dao1 gene and pRLM226 carrying modified Daol. Both constructs contain gusINT reporter marker gene (FIGS. 3, I and II). Following co cultivation the explants were transferred on callus induction PAW-2 selection free medium containing 160 mg/l Timentin to inhibit bacterial growth for 14 days. For selection embryogenic callus was transferred to PAW-2 selection medium containing 5 mM D-serine or 5 mM D-alanine respectively. Furthermore calli were sub cultured to fresh corresponding selection PAW-2 medium for maintaining. Embryogenic calli were trans-ferred on PAW-4 selection medium for regeneration 5-6 weeks after transformation. The emerging plantlets were further grown and rooted on PAW-5 hormone free selection medium. Well-developed and rooted on selection putative transgenic regenerants were selected in vitro within. When D-alanine was used as selection compound similar effects in callus growth, shoots regeneration and rooting of transgenic plants or non transgenic escapes selected on D-serine was observed. Both selection agents resulted with 1.1% to 1.2% transformation efficiency and no escape rate (Table 9).

[2] = system: wheat in vitro shoots; experiment: Killing curve: rooting of in vitro shoots; assay type: in vivo, Triticum aestivum
Description: […] The effect of selection agents was observed two and tree weeks later. Number of plantlets with growing roots and green leaves were scored.
In vitro regenerated shoots from media lacking the selection compounds were collected and transferred on medium for rooting (½ MS salts hormone free). Roots formation, growth of the shoots and leaves elongation was scored two and four weeks later after sub culturing of these shoots to the medium supplemented with D-amino acids (Table 5).

[3] = system: wheat variety Canon immature embryos / embryogenic callus; experiment: Agrobacterium-mediated transformation with dsdA constructs and selection of transgenic plants; assay type: cell-based, Triticum aestivum
Description: as §1, §2
Freshly isolated immature embryos from Canon were inoculated with Agrobacterium. In all experiments Agrobacterium tumefacience LBA4404 (pSB1/pRLM167) (SEQ ID NO: 11) was used. The pRLM167 is a super binary vector containing p-ZmUBI+I::c-dsdA::t-OCS and p-ZmUBI+I::c-PAT::t-OCS selectable marker genes in expression cassettes (FIG. 1). Following co cultivation the explants were given a chance to recover for 14 days on callus induction selection free medium containing 160 mg/l Timentin to inhibit bacterial growth. Under these conditions 59% to 76% of the embryogenic callus developed over the all surface of immature embryos. Embryogenic callus was split in two and transferred to two the corresponding selection medium containing 5-mM D-serine or 3 mg/l bialaphos. During subsequent growth of callus, regeneration of plantlets, shoots elongation and roots formation the respective selection pressure was maintained in each of the corresponding medium. After 7 weeks of selection 38%-47% of the embryogenic calli regenerated with plants when selected on bialaphos or on D-serine respectively. Further selection of the regenerants was performed during the elongation and rooting of the regenerants for an additional 3 weeks. Intact in vitro transgenic shoots were selected within 10-12 weeks after co cultivation.
Freshly isolated immature embryos from Canon were inoculated with Agrobacterium. In all experiments Agrobacterium tumefacience super binary vector system based on LBA4404 (pSB1) was used. The constructs pRLM179, pRLM166, pRLM151 (FIG. 2. I, II and III) containing dsdA selectable marker gene alone or with a second gene (ahas or gusINT) were used for transformation. The explants were cultured on selection medium right away after co-cultivation with Agrobacterium or were cultivated on callus induction—recovery medium for 7, 14 and 21 days containing only 160 mg/l Timentin for inhibiting bacterial growth. Furthermore calli were sub cultured to fresh selection PAW-2 medium for proliferation. Embryogenic calli were transferred on PAW-4 selection medium for regeneration 5-6 weeks after transformation. The emerging plantlets were further grown and rooted on PAW-5 hormone free selection medium. […]

[4] = construct pRLM167 (dsdA/pat), selection on 5 mM D-serine or 3 mg/l bialaphos
[5] = pRLM179 (dsdA/AHAS), 3 mM, selection started 21 days after co-cultivation
[6] = pRLM179 (dsdA/AHAS), 5 mM, selection started 21 days after co-cultivation
[7] = pRLM179 (dsdA/AHAS), 10 mM, selection started 21 days after co-cultivation

N[C@H](CO)C(=O)O [D-serine] was tested, and the “ER (%) Escape Rate” value ([1]; pRLM205 (dao1 original)) was 0%, the “TE (%) Transformation Efficiency” value ([1]; pRLM205 (dao1 original)) was 1.1% and the “ER (%) Escape Rate” value ([1]; pRLM226 (dao1/ko modified)) was 0%. For the same compound, the “TE (%) Transformation Efficiency” value ([1]; pRLM226 (dao1/ko modified)) was 0.72%, the “root formation of non-transgenic shoots” value ([2]; 5 mM) was “not able to form roots” and the “Rooted Shoots (%)” value ([2]; Bobwhite, 1 mM) was 64%. For the same compound, the “Rooted Shoots (%)” value ([2]; Bobwhite, 3 mM) was 24%, the “Rooted Shoots (%)” value ([2]; Bobwhite, 5 mM) was 3% and the “Rooted Shoots (%)” value ([2]; Bobwhite, 10 mM) was 0%. For the same compound, the “Rooted Shoots (%)” value ([2]; Bobwhite, 15 mM) was 0%, the “Rooted Shoots (%)” value ([2]; Bobwhite, 25 mM) was 0% and the “Rooted Shoots (%)” value ([2]; Canon, 1 mM) was 56%. The “Rooted Shoots (%)” value ([2]; Canon, 3 mM) was 16%, the “Rooted Shoots (%)” value ([2]; Canon, 5 mM) was 2% and the “Rooted Shoots (%)” value ([2]; Canon, 10 mM) was 0%. The “Rooted Shoots (%)” value ([2]; Canon, 15 mM) was 0%, the “Rooted Shoots (%)” value ([2]; Canon, 25 mM) was 0% and the “ER Escape Rate (% of non-transgenic regenerants out of all selected plants)” value [3, 4] was 17%. For the same compound, the “TE Transformation Efficiency (% of transgenic plants out of the explants)” value [3, 4] was 2.1%, the “Average transformation efficiencies for both constructs” value ([3]; dsdA constructs with ahas or gusINT, selection on D-serine) was “about 1%” and the “TE (%) Transformation Efficiency” value ([3]; pRLM166, 5 mM, start of selection 21 days) was 0.69%. The “ER (%) Escapes Rate” value [3, 5] was 100%, the “TE (%) Transformation Efficiency” value [3, 5] was 0% and the “ER (%) Escapes Rate” value [3, 6] was 25%. For the same compound, the “TE (%) Transformation Efficiency” value [3, 6] was 1.39%, the “ER (%) Escapes Rate” value [3, 7] was 0% and the “TE (%) Transformation Efficiency” value [3, 7] was 0.77%.

Source: patent US20090106856A1, “Selection System for Wheat” (BASF PLANT SCIENCE GMBH, priority 2005, published 2009)
